The subject of one data set is PC3 cells. The experiment in a line: Growth on matrigel / in vitro invasion. Type of data set: cell-based, human. Particulars: 800 µg/ml for 4 days, replated on matrigel, 8 days after plating. The method, then:
Pictures of controls, taken after 1 and 8 days (A and B, respectively), show the characteristic growth pattern of untreated cells, i.e., formation of net-like structures composed of actively replicating cells, which eventually degraded the matrigel and formed monolayers on the plastic surface beneath.
Results scored 6-24 hours later.
It is known that PC3 cells are invasive in vitro and metastatic in recipient athymic mice. [Albini, A. et al. A rapid in vitro assay for quantitating the invasive potential of tumor cells. Cancer Res. 47:3239-3245 (1987)]. The invasiveness of PC3 cells which is indicative of their malignant phenotype can be assessed by their ability to degrade and cross tissue barriers such as matrigel, a reconstituted basement membrane. […] In Fig. 7, pictures of controls taken after 1 and 8 days, A and B, respectively, shown the characteristic growth pattern of untreated cells, i.e., formation of net-like structures composed of actively replicating cells which eventually degraded the matrigel and formed monolayers on the plastic surface beneath. […] The formation of small noninvasive colonies on top of the matrigel is indicative of loss of malignant properties following treatment. Results of the in vitro invasion assays correlate highly with the biological behavior of cells in vivo.

The test system of another data set is HL-60. The experiment in a line: Granulocyte differentiation (NBT reduction, morphology) and viability by trypan blue exclusion. Here is the method: The number of NBT positive cells was determined after 4 [solid bars] or 7 days [hatched bar] of treatment. […] Glutamine Starvation (Gln, < 0.06 mM) was as described (18).
The ability of cells to reduce nitroblue tetrazolium (NBT) is indicative of oxidase activity which is characteristic of the more mature forms of human bone marrow granulocytes. NBT reduction thus serves as an indicator of granulocyte differentiation. […] Glutamine starvation (Gln, < 0.06 mM) was as described. […] DON, ACV and HPA are glutamine antagonists.

The test system of data set [1] is adipocyte-specific aP2 gene. Description: Northern blot analysis of aP2 expression. Type of data set: cell-based, mouse. Particulars: treated confluent 10T1/2 cultures. Here is the method: (§1) Cytoplasmic RNA (20 µg/lane) was subjected to Northern blot analysis using ^32P-labeled specific DNA probes. Ethidium bromide-stained […] indicates the relative amounts of total RNA in each lane. Figure A. Induction of a P2 expression in 10T1/2 cells. […] Figure B. Kinetics of myc inhibition and HLA-A induction in HL-60. […] Figure C. Dose-dependent and specificity of effect.
In an attempt to explore the possible mechanism of action, Northern blot analysis of HL-60 and 10T1/2 cells was performed according to conventional methods. […] The aP2 cDNA probe was labeled with [^32P]dCTP (NEN) using a commercially available random primed DNA labeling kit. Ethidium bromide-stained 28S rRNA indicates the relative amounts of total RNA in each lane.
Expression of the adipocyte-specific aP2 gene was induced within 24 hrs in treated 10T1/2 confluent cultures reaching maximal mRNA levels by 72 hrs.

Another data set relates to Melanoma SK MEL 28. The experiment in a line: Tumor cell growth / proliferation. In kind it is cell-based. To be noted: Homo sapiens.
Data set [2] relates to the malignant or the normal cells. The experiment in a line: Cytotoxicity in tissue culture. In kind it is cell-based. Particulars: growth-inhibitory concentrations. An excerpt: (§2) A differential effect was seen also in ras-transformed fibrosarcoma V7T, when compared to the parental non-tumorigenic N1H3T3 cells.
(§3) The concentration range found to selectively suppress malignant growth can be readily obtained in the clinical setting without causing significant side effects.

Data set [3] is described as follows: Cytotoxicity in tissue culture. In kind it is cell-based. Particulars: tissue culture; read-out: concentration at which cytotoxicity was observed.
Text: as §2, §3

A further data set relates to Astrocytoma U373. The experiment in a line: Tumor cell growth / proliferation. Type of data set: cell-based. To be noted: Homo sapiens.
The subject of a further data set is lung adenocarcinoma H661. Description: Tumor cell growth / proliferation. In kind it is cell-based. To be noted: Homo sapiens, NCI-H661; read-out: concentration causing about 50% inhibition of growth.
The subject of another data set is 10T1/2 cells. Description: Neoplastic foci formation in culture. Particulars: 800-1600 µg/ml for seven weeks. The source says: […] The cells were then subcultured in the absence of the nucleoside analog for an additional seven weeks. […] For the tumorigenicity assay, 4-5 week-old female athymic nude mice were inoculated s.c. with 1 x 10^6 cells and observed for tumor growth at the site of injection.

In another data set the test system is HLA-A. The experiment in a line: Northern blot analysis of HLA-A mRNA in HL-60. In kind it is cell-based, human. Particulars: HL-60, NaPA 0.8 and 1.6 mg/ml. Here is the method:
as §1
In HL-60, cell transformation has been linked to myc amplification and overexpression, and differentiation would typically require down regulation of myc expression. [Collins, S.J. The HL-60 promyelocytic leukemia cell line: Proliferation, differentiation, and cellular oncogene expression. Blood. 70:1233-1244 (1987)]. […] The 32P-labeled probes used were myc 3rd exon (Oncor) and HLA-A3 Hind III/EcoRI fragment. […] This occurred within 4 hours of treatment, preceding the phenotypic changes detectable by 48 hrs, approximately two cell cycles, after treatment. Similar kinetics of myc inhibition have been reported for other differentiation agents such as dimethyl sulfoxide, sodium butyrate, bromodeoxyuridine, retinoids, and 1,25-dihydroxyvitamin D3. […] It is believed that this may enhance the immunogenicity of tumors in vivo.

In data set [4] the test system is Squamous Cancer of Head & Neck A431. Description: Tumor cell growth / proliferation. Type of data set: cell-based. To be noted: Homo sapiens. An excerpt:
(§4) • # 7-10 For effective responses, the tumors may require much higher drug concentrations if used alone.

Another data set concerns Fibrosarcoma RS485. Description: Tumor cell growth / proliferation. Type of data set: cell-based. To be noted: read-out: % Inhibition by NaPA 0.8 mg/ml.
Text: as §4

The next data set relates to Breast Cancer MCF-7. Description: Tumor cell growth / proliferation. In kind it is cell-based. Particulars: Homo sapiens.
Text: as §4

Data set [5] relates to NIH 3T3 cells carrying activated EJras oncogene. Description: Prevention of neoplastic transformation, oncogene transfer (ras-transformed foci). In kind it is cell-based. Particulars: treatment initiated 24-48 hr after oncogene transfer, scored 14-21 days later. The source says:
Left: Untreated control cells at about 3 weeks after DNA transfer. Middle: control of cells with as oncogenes, showing the rate of spontaneous transformation. Right: Oncogene-transfected cells, […] with NaPA.
The effect was reversible upon cessation of treatment. In treated humans, however, the fate of the premalignant cells may be substantially different due to involvement of humoral and cellular immunity (see below).

Where [6] appears, read: after seven days of NaPA treatment, or four days when combined with RA.

Take `O=C([O-])Cc1ccccc1.[Na+]` [NaPA, sodium phenylacetate]: the “degradation of the matrigel barrier” value in the data set on PC3 cells is recorded as “failed to degrade the matrigel barrier”. Also, the “granulocyte differentiation (NBT positive cells)” value in the data set on HL-60 (NaPA 0.8 and 1.6 mg/ml, 4 or 7 days) is “capable of inducing granulocyte differentiation in HL-60”. For the same compound, the “banded and segmented neutrophils capable of NBT” value with HL-60 (setting [6]) is reported as 30-40%. Moreover, the “early stage myelocytes and metamyelocytes” value with HL-60 (setting [6]) is 30-50%. The “time to induction of aP2 gene expression” value in [1] is ≤ 24 h. Further, the “time to maximal aP2 mRNA levels” value in [1] is ≤ 72 h. The inhibition at 800 µg/mL is > 50% in the data set on Melanoma SK MEL 28 (read-out: % Inhibition by NaPA 0.8 mg/ml, 0.8 mg/ml); ≥ 50% with Astrocytoma U373 (read-out: % Inhibition by NaPA 0.8 mg/ml, U373, 0.8 mg/ml); < 30% in data set [4] (A-431, read-out: % Inhibition by NaPA 0.8 mg/ml, 0.8 mg/ml); ≤ 30% in the data set on Fibrosarcoma RS485; ≤ 30% in the data set on Breast Cancer MCF-7 (MCF7, read-out: % Inhibition by NaPA 0.8 mg/ml, MCF-7, 0.8 mg/ml). The IC50 in the data set with Melanoma SK MEL 28 (read-out: concentration causing about 50% inhibition of growth) is 400 to 800 µg/mL; in the data set on Astrocytoma U373 (U373 MG, read-out: concentration causing about 50% inhibition of growth), 400 to 800 µg/mL; with lung adenocarcinoma H661, 400 to 800 µg/mL; in data set [4] (A-431, read-out: concentration causing about 50% inhibition of growth) it was 1000 to 1500 µg/mL; in the data set with Breast Cancer MCF-7 (MCF7, breast tumor MCS-7, read-out: concentration causing about 50% inhibition of growth), 1000 to 1500 µg/mL. Moreover, the “toxicity of the treatment to cells” value in data set [2] is listed as “not toxic to either the malignant or the normal cells”. The MCC in data set [3] was > 3000 µg/mL. For the same compound, the “neoplastic foci in vitro and tumors in recipient mice” value in the data set on 10T1/2 cells is on record as “forming neither neoplastic foci in vitro nor tumors in recipient mice”. Further, the “HLA-A mRNA” value in the data set with HLA-A is “time- and dose-dependent accumulation of HLA-A mRNA”. In addition, in data set [5], the “formation of ras-transformed foci” value is “dose-dependent reduction in the formation of ras-transformed foci”.

(Values after EP0567613B1, “COMPOSITIONS FOR THERAPY AND PREVENTION OF CANCER” (The Government of the United States of America, as …, priority 1991, dated 1993).)
